Key:
[1] = target: T1, Phosphatidylinositol 4,5-bisphosphate 3-kinase catalytic subunit beta isoform (Homo sapiens, UniProt P42338); test: Inhibition of PI3Kbeta assessed as enzyme activity at 10 uM relative to control; design: scale not given: the % may be the effect or the level left
Target sequence in this assay (P42338 whole entry, looked up, canonical isoform): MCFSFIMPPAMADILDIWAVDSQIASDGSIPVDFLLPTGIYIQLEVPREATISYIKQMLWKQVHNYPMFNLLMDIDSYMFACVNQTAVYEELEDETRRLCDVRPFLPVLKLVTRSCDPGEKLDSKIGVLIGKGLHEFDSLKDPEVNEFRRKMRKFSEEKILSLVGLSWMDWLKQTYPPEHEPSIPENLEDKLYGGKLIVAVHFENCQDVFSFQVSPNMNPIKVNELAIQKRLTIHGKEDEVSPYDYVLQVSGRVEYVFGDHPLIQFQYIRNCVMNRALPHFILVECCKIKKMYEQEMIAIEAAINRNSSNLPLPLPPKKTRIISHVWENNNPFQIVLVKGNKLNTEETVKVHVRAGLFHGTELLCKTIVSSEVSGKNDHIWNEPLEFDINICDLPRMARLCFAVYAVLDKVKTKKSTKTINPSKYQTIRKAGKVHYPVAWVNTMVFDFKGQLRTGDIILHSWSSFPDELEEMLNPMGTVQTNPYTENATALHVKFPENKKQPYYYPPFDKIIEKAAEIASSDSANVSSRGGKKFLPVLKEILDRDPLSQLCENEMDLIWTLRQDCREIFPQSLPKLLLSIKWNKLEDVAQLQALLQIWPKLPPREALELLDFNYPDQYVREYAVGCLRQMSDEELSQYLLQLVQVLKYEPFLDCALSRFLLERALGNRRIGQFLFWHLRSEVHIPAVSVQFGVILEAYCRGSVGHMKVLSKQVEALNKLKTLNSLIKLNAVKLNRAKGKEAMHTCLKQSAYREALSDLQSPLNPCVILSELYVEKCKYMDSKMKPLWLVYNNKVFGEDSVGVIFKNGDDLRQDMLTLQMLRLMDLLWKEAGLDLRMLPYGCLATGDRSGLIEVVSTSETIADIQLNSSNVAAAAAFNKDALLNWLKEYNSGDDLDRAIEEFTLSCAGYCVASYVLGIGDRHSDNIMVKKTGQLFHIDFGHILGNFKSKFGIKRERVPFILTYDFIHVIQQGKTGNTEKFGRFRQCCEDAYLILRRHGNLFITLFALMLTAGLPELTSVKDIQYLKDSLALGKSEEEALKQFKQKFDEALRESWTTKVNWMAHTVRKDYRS

[2] = target: T2, Phosphatidylinositol 4,5-bisphosphate 3-kinase catalytic subunit alpha isoform (Homo sapiens, UniProt P42336); test: Inhibition of PI3Kalpha assessed as enzyme activity at 10 uM relative to control; design: scale not given: the % may be the effect or the level left
[3] = target: T1, Phosphatidylinositol 4,5-bisphosphate 3-kinase catalytic subunit beta isoform; test: Binding affinity to PI3Kbeta
Target sequence in this assay (P42338 whole entry, canonical isoform): as the sequence (P42338 whole entry, looked up, canonical isoform) above

[4] = target: Phosphatidylinositol 4,5-bisphosphate 3-kinase catalytic subunit gamma isoform (Homo sapiens) (UniProt P48736); test: Inhibition of PI3Kgamma assessed as enzyme activity relative to control; design: scale not given: the % may be the effect or the level left
[5] = target: T3, Phosphatidylinositol 4,5-bisphosphate 3-kinase catalytic subunit delta isoform (Homo sapiens) (UniProt O00329); test: Inhibition of PI3Kdelta assessed as enzyme activity relative to control; design: concentration or dose not given beside the values
T3 sequence (whole entry): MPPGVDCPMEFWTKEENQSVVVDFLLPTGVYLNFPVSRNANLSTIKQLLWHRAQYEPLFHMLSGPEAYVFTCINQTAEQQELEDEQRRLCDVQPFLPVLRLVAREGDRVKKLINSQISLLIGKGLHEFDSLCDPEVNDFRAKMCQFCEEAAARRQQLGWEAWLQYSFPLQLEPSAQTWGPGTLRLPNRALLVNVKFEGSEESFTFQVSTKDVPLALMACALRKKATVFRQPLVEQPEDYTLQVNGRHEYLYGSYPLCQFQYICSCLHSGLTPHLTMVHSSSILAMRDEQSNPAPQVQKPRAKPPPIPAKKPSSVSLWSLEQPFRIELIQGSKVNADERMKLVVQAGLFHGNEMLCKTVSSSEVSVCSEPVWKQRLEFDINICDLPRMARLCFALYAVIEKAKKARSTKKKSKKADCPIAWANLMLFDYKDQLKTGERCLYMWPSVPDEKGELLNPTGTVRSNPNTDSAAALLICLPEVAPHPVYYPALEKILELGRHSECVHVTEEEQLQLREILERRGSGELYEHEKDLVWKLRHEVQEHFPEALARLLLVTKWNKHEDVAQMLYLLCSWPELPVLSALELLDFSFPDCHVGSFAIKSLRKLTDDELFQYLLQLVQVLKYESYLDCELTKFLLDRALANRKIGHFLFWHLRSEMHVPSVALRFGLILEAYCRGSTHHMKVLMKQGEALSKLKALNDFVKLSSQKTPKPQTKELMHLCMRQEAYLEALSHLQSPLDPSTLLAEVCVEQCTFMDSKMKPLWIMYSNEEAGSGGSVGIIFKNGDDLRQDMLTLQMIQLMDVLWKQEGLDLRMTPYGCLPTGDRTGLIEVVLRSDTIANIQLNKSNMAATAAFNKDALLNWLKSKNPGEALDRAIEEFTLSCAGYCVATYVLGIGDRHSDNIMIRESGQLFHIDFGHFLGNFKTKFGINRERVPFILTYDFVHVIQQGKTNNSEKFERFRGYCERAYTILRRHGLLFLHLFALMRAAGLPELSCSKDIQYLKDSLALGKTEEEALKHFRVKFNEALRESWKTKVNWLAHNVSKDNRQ

[6] = target: Serine/threonine-protein kinase mTOR (Homo sapiens) (UniProt P42345); test: Inhibition of mTOR assessed as enzyme activity relative to control; design: concentration or dose not given beside the values
[7] = test system: T47D; test: Antiproliferative activity against human T47D cells by MTT assay; assay type: functional, cell-based
[8] = target: T2, Phosphatidylinositol 4,5-bisphosphate 3-kinase catalytic subunit alpha isoform; test: Binding affinity to PI3Kalpha

T2 sequence (P42336 whole entry, canonical isoform): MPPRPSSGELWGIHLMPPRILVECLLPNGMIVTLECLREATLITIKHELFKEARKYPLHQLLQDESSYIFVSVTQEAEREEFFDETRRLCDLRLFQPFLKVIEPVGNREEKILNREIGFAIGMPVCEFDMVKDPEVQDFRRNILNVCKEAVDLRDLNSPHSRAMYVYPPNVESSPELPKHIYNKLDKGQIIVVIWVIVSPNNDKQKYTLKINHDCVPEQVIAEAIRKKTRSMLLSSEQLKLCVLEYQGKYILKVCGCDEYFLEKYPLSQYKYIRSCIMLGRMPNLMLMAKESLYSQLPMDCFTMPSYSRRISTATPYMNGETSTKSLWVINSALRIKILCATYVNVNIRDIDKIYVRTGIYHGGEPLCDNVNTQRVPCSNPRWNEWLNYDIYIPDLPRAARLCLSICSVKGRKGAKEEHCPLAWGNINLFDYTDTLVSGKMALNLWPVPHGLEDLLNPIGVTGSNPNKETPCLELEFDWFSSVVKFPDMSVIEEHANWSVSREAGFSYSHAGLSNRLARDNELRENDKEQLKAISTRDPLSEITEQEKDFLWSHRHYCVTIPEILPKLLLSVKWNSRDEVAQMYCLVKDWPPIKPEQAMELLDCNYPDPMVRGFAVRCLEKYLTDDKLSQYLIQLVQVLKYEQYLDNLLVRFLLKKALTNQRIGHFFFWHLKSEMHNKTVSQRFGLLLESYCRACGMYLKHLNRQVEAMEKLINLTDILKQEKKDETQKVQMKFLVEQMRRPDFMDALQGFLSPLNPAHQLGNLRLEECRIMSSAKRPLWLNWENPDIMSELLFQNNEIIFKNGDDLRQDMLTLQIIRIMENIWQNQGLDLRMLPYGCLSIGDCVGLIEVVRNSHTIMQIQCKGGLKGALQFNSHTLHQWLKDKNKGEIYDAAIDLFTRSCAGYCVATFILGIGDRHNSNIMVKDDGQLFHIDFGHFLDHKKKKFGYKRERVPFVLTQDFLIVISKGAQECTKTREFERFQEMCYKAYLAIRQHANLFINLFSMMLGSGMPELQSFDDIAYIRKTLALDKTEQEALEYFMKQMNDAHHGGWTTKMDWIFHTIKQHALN
Phosphatidylinositol 4,5-bisphosphate 3-kinase catalytic subunit gamma isoform (Homo sapiens), sequence (P48736 whole entry, looked up, canonical isoform): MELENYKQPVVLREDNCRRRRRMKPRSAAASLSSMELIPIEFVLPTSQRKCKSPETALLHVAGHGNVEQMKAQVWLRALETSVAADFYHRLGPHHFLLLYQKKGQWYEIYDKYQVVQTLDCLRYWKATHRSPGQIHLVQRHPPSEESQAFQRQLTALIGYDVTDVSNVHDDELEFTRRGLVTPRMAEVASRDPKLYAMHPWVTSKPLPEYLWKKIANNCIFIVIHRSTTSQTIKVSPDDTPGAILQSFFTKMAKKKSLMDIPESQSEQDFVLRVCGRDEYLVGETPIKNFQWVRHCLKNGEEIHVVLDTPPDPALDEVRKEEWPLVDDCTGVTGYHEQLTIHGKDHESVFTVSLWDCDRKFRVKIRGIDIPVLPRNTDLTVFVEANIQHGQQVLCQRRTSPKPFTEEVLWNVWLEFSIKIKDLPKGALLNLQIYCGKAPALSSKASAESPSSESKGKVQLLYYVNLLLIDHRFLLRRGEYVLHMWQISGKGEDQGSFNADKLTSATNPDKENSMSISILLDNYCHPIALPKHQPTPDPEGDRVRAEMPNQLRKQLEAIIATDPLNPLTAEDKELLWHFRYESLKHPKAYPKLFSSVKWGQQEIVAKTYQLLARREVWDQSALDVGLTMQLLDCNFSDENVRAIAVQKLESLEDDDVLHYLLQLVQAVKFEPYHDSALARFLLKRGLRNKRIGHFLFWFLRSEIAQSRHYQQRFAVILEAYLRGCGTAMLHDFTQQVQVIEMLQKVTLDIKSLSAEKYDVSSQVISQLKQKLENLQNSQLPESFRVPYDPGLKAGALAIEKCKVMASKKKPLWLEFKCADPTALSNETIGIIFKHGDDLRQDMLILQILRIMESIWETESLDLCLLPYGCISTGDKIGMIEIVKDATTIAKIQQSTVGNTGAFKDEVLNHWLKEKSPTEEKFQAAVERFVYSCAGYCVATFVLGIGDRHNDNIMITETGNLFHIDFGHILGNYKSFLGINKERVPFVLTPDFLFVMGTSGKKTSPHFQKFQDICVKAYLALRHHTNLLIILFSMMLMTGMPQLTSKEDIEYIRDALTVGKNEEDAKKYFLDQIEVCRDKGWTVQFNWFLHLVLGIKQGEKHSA

Activity [1] [%]	Activity [2] [%]	Kd [3] [nM]	Activity [4] [%]	Activity [5] [%]	Activity [6] [%]	IC50 [7] [nM]	Kd [8] [nM]	SMILES
69	97	> 20000	98	65	79	–	–	CC(=O)Nc1cncc(-c2cnc(N)nc2)c1
7.4	52	–	–	–	–	–	–	O=S(=O)(Nc1cncc(-c2cccnc2)c1)c1ccccc1
1.7	87	500	20	4.3	39	–	–	COc1ccc(S(=O)(=O)Nc2cncc(-c3cnc(N)nc3)c2)cc1
5.2	39	–	–	–	–	–	–	CNc1ncc(-c2cncc(NS(=O)(=O)c3ccccc3)c2)cn1
0.7	42	250	5.3	0.1	78	–	–	Cc1ccc(S(=O)(=O)Nc2cncc(-c3cnc(N)nc3)c2)cc1[N+](=O)[O-]
0.5	17	100	8.2	3.4	76	4700	–	Cc1ccc(S(=O)(=O)Nc2cncc(-c3cnc(N)nc3)c2)cc1
1.4	60	360	24	4.2	74	9600	–	Nc1ncc(-c2cncc(NS(=O)(=O)c3ccccc3)c2)cn1
0	0	–	–	–	–	–	–	Nc1ncc2cc(-c3cncc(NS(=O)(=O)c4ccccc4)c3)ccc2n1
66	100	–	–	–	–	–	–	CN(C)c1ncc(-c2cncc(NS(=O)(=O)c3ccccc3)c2)cn1
18	89	–	–	–	–	–	–	Cc1nc(N)nc(C)c1-c1cncc(NS(=O)(=O)c2ccccc2)c1
28	62	5200	43	38	67	–	–	CS(=O)(=O)Nc1cncc(-c2cnc(N)nc2)c1
1.6	18	550	6.7	9.5	68	–	–	Nc1ncc(-c2cncc(NS(=O)(=O)c3ccc([N+](=O)[O-])cc3)c2)cn1
5.2	66	–	–	–	–	–	–	Cc1nc(N)ncc1-c1cncc(NS(=O)(=O)c2ccccc2)c1
0.6	4	–	–	–	–	–	–	O=S(=O)(Nc1cncc(-c2ccc3nccn3c2)c1)c1ccccc1
39	95	–	–	–	–	–	–	O=S(=O)(Nc1cncc(-c2cnc3nccn3c2)c1)c1ccccc1
34	100	–	–	–	–	–	–	CC(=O)Nc1ncc(-c2cncc(NS(=O)(=O)c3ccccc3)c2)cn1
1.2	30	430	9.6	0.9	41	–	–	Nc1ncc(-c2cncc(NS(=O)(=O)c3cccc(C(F)(F)F)c3)c2)cn1
4.9	56	–	–	–	–	–	–	O=S(=O)(Nc1cncc(-c2cnc3[nH]ccc3c2)c1)c1ccccc1
0.7	22	220	7.2	4.7	56	8500	–	Nc1ncc(-c2cncc(NS(=O)(=O)c3ccc(F)cc3F)c2)cn1
86	98	> 40000	100	82	53	–	–	Nc1cncc(-c2cnc(N)nc2)c1
1	92	230	25	4.2	96	–	> 40000	Nc1ncc(-c2cncc(NS(=O)(=O)c3ccc4ccccc4c3)c2)cn1
